For 34 molecules, melting point results are on record in a melting point compilation (Tetko et al.; mined from patent text by program, amines drawn as free bases though some values may be those of a salt).

Each structure is given as a SMILES string.

As for `CO[C@]1(c2csc(Sc3ccc4c(c3)CC/C4=N\O)c2)CCO[C@@H]1C` (racemic), the melting point – broadly, the temperature, or range, at which the solid turns liquid – was in the range of 140 to 142 °C.

Consider `Cc1cc2c(-c3ccccc3)c(CCO)n(C)c(=O)c2cc1C`, for which the melting point was in the range of 204 to 207 °C.

On to `Nc1c(F)c(N2C[C@@H](N)[C@@H](n3ccnn3)C2)c(F)c2c1c(=O)c(C(=O)O)cn2-c1ccc(F)cc1F` (relative stereo), for which the melting point lay in the range of 279 to 281 °C. Consider `CSC1C(=O)CC2C3CCC4=CC(=O)C=CC4(C)C3(F)C(OC(C)=O)CC12C` (centres undefined), for which the melting point was in the range of 235 to 237 °C. In turn, `CC(=O)c1ccc(NCc2cc3c(cc2O)CCCO3)cc1` registered a melting point of 177 to 179 °C. For `O=S1(=O)N=CN(C2CC2)c2c(F)cc(F)c(F)c21` the value was 166 to 168 °C. For the molecule `O=c1c(N2CCNCC2)nc2ccc(F)cc2n1-c1ccccc1`, the melting point is 142 to 143 °C. Molecule `O=C(NCc1ccc(Cl)cc1)c1cn2c3c(cc(CCCO)cc3c1=O)OCC2(CO)CO` came in with a melting point of 173 to 174 °C. The result for `CCN1CCCOc2ccc(Nc3ncc(Cl)c(Nc4ccsc4C(=O)NC)n3)cc21` reads 153 to 155 °C. The result for `CCOC(=O)c1c(C(F)(F)F)oc(C(F)(F)F)c(C(=O)OCC)c1=O` reads 90 to 91 °C. Turning to `CCc1c(-c2ccc(N3CCN(C)CC3)nn2)ssc1=S`, the melting point is 182 °C. Regarding `Cc1nnc(-c2ccc3occ(-c4ccc(SC(C)C)cc4)c3c2)o1`, the melting point is 96 to 97 °C. In turn, `CC(=O)c1sccc1S(=O)(=O)N(C)c1cccc2cc(-c3nccs3)[nH]c12` yielded a melting point of 156 °C. For `O=C(OC(c1ccccc1)c1ccccc1)C1=C(Sc2ccccc2)CC2CC(=O)C12` (centres undefined), the melting point lay in the range of 148 to 150 °C. The result for `CC(C)Cn1c(=O)c(-c2c(Cl)cccc2Cl)cc2cnc(N)nc21` reads 193 to 195 °C. The result for `COc1cc2nc(N)nc(-c3ccc(Cl)cc3)c2cc1OC` reads 248 to 250 °C; that for `CCOC(=O)CN(CC(=O)OCC)C(=O)C(=O)c1ccc(OCCCCCCCCCCCCOc2ccccc2)cc1`, 55 to 56 °C; that for `O=C1NCc2cc(Br)sc21`, 96 to 97 °C. Turning to `N#Cc1ccc(Nn2cnnc2)cc1-c1ccc(C(F)(F)F)cc1`, the melting point is 140 to 143 °C. `CCOc1ccc(C(=O)N(C)C)c2c1C(=O)N(Cn1nnn(-c3ccccc3)c1=S)S2(=O)=O` displayed a melting point of 172 to 173 °C. For `COc1ccc(CC(Cc2ccccc2)C(=O)O)cc1` (centres undefined) the value was 72 to 76.5 °C. For `Cc1sc(-c2ccc(-c3ccccc3)cc2)nc1CCOc1ccc(OC(C)(C)C(=O)O)cc1` the value was 174 °C; for `O=S1(=O)C[C@H](O)[C@H](O)CS1`, 131 to 132 °C. The result for `O=C(O)Cc1ccc(Cn2cc(C(=O)C(=O)NC3=CC(=O)OC3)c3ccccc32)cc1` reads above 270 °C. In turn, `CC[Si](C#Cc1ccc2nc(-n3ccnc3)nc(NCCOC)c2c1)(CC)CC` registered a melting point of 158 to 160 °C. For `COc1cc(C2(C=O)C=CC=CC2)ccc1OCCCN1CCC(c2noc3cc(F)ccc23)CC1` (centres undefined) the value was 128 to 130 °C. For `CS(=O)(=O)c1ccc(-c2[nH]c(S)nc2-c2ccc(F)cc2)cc1` the value was 158 to 161 °C; for `OC(CCl)CN(CC(O)CCl)c1ccccc1` (centres undefined), 60 °C; for `CC(C)CN(CC(C)C)C(=O)c1ccc(F)c([N+](=O)[O-])c1`, 47 °C.

The molecule `CCOC(=O)c1c(OC)c2ccccc2c2nc3ccccc3nc12` registered a melting point of 155 to 157 °C.

`CCc1cccc(NC(=O)NCC(=O)N(CC(=O)N(C)c2ccccc2)c2ccccc2)c1` showed a melting point of 105 °C. The result for `CCCc1nc2c(N)nc3ccccc3c2n1CCOCCCS(C)(=O)=O` reads 149 to 151 °C; that for `CCCC(=O)c1cnc2c(OCCCN(C)C)cccc2c1Nc1ccc(F)cc1C`, 99 to 100 °C; that for `CSc1nsc(-c2ccccc2)n1`, 57.1 °C.
